From PMC11380953, “Multivalent, calcium-independent binding of surfactant protein A and D to sulfated glycosaminoglycans of the alveolar epithelial glycocalyx” (American Journal of Physiology - Lung Cellular and …, 2024)
Where two headings read alike, the source gives them in different places.

Tests used:
[1] = target: T1, hSP-A (human SP-A, isolated from BAL of PAP patient) (Homo sapiens, UniProt Q8IWL1+Q8IWL2); assay: Microscale thermophoresis (MST) binding to hSP-A; parameters: Response Amplitude: unit not given here; conditions: for binding of hSP-A in the absence or presence of low calcium concentrations: 0 and 2.5 mM calcium (Fig. 3A-C); for Response Amplitude / Kd: hSP-A
T1 construct: Human PAP patient, BAL isolated; from tissue; host or cells: bronchoalveolar lavage fluid of a patient with pulmonary alveolar proteinosis
Protocol: (§1) Human-isolated and recombinant proteins were labeled using the Monolith Protein Labeling Kit RED-NHS according to the manufacturer’s instructions. This kit reagent reacts with lysine residues present in the sequence of the protein, as the dye carries a reactive NHS-ester group. Briefly, as all the proteins were in a Tris buffer solution, the buffer solution was exchanged to a HEPES-based buffer with the A-Column provided in the kit. Then, 10 µM solution of protein was incubated with a threefold excess of dye in 100 µL for 30 min at room temperature protected from light. The labeled protein was separated from the free dye using the B-Column provided in the kit. The concentration of the labeled protein {c(M) = [A205 − (A650 × 0.19)]/[31 × MWprotein]) and the degree of labeling [DOL = A650/(195.000 M^−1cm^−1 × c(M)] were calculated according to the manufacturer’s instruction, measuring absorption at 205 nm (for the protein) and 650 nm (for the dye).
(§2) Thermophoresis is the phenomenon of movement of particles along a temperature gradient. Solvated molecules move from higher to lower temperature. This movement or depletion of molecules from the heat is quantified by the Soret coefficient ST: Chot/Ccold = exp (−STΔT). The depletion of molecules depends on the interface between molecule and solvent. Therefore, thermophoresis monitors changes in size, charge, and solvation entropy of molecules. In this regard, the thermophoresis or movement of a protein is different from a protein-ligand complex ([35]). Microscale or miniaturized thermophoresis allows to monitor molecular interaction in only a few microliters. For this method, the fluorescently labeled protein is mixed with a decreasing concentration of a ligand in 16 glass capillaries. The initial fluorescence is measured (Fcold), then an infrared (IR) laser beam is switched on and focused on the center of the first capillary, where the temperature gradient is created from the center to the walls of the capillary. At the same time, a dichroic mirror allows fluorescence from the labeled protein to be monitored (Fhot). The rate of fluorescence change is related to the amount of protein-ligand complex form, which depends on the ligand concentration, due to changes in size, charge, or hydration shell of the protein-ligand complex. The dissociation constant KD is calculated from the binding curve derived by plotting the normalized fluorescence (FNorm) at a given time after the start of the thermophoresis against the respective ligand concentration ([33], [34], [36]).
(§3) Samples were measured in a Monolith NT.115, using Premium Capillaries (MO-K025) and Monolith Protein labeling kit RED-NHS (MO-L011) all from NanoTemper Technologies (Munich, Germany). Solutions of a 3X concentrated MST buffer (15 mM Tris, 300 mM NaCl, 0.3% Tween 20, 15 mM CaCl2, pH 7.4), sugars (270 mM) or GAG (30 µM) solution, and protein solution (27 nM) were prepared separately. When a different concentration was used, a threefold concentration of the solution was prepared. Afterward, sugars and GAG solutions were diluted 1:2 with water in a series of 16 steps. For the measurement, 3 µL of each prepared component (3 µL MST buffer, 3 µL GAG solution, and 3 µL labeled protein) was mixed, centrifuged shortly to eliminate precipitates, and loaded into a glass capillary. The final concentrations of the sugars were thus between 90 –and 0.00275 mM or GAGs 10 and 0.000305 µM for GAGs, respectively. The 16 capillaries were loaded in the Monolith NT.115 and measurements were performed with a 40% LED power and medium MST power at 25°C.
(§4) Every set of 16 capillaries was prepared in 3–6 replicates (technical replicates) and measured. The replicate measures of every capillary were plotted against concentration and outliers were excluded, using the MO Affinity Analysis 3 v01 software (NanoTemper Technologies, Munich, Germany). […]

[2] = target: T2, rhSP-D (human recombinant SP-D) (Homo sapiens, UniProt P35247); assay: Microscale thermophoresis (MST) binding to rhSP-D; parameters: Response Amplitude: unit not given here
T2 construct: host or cells: CHO cells
T2 sequence (P35247 21-375): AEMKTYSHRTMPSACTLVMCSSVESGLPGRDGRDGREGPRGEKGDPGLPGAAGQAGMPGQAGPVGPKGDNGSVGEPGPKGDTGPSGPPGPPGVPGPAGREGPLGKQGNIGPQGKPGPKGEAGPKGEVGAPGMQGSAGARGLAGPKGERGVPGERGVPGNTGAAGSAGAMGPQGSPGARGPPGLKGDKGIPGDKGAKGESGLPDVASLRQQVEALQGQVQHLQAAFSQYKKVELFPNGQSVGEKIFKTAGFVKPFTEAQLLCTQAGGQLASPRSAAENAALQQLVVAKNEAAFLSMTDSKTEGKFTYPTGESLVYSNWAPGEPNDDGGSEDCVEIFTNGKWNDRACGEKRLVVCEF
Protocol: as §1, §2, §3, §4

[3] = target: T3, recSP-A1 (human recombinant SP-A1) (Homo sapiens, UniProt Q8IWL2); assay: Microscale thermophoresis (MST) binding to recSP-A1; conditions: for Kd: recSP-A1, GAGs from Fig. 2, read-out: Kd (±KD Confidence); for Response Amplitude: recSP-A1, MST, GAGs from Fig. 2
T3 construct: purchased Aviva Systems Biology OPCD07130; host or cells: prokaryotic expression
Protocol: as §1, §2, §3, §4

[4] = target: T4, recSP-A2 (human recombinant SP-A2) (Homo sapiens, UniProt Q8IWL1); assay: Microscale thermophoresis (MST) binding to recSP-A2; conditions: for Kd: recSP-A2, GAGs from Fig. 2, read-out: Kd (±KD Confidence); for Response Amplitude: recSP-A2, MST, GAGs from Fig. 2
T4 construct: purchased Aviva Systems Biology OPCD07132; host or cells: prokaryotic expression
Protocol: as §1, §2, §3, §4

[5] = target: T5, hSP-D (human SP-D, isolated from BAL of PAP patient) (Homo sapiens, UniProt P35247); assay: Microscale thermophoresis (MST) binding to hSP-D; conditions: for Kd: GAGs from Fig. 2, read-out: Kd (±KD Confidence); for Response Amplitude: MST, GAGs from Fig. 2
T5 construct: hSP-D; 0.6 µM; Human PAP patient, BAL isolated; from tissue; host or cells: bronchoalveolar lavage fluid of a patient with pulmonary alveolar proteinosis
T5 sequence (P35247 21-375): T2 sequence (P35247 21-375)
Protocol: as §1, §2, §3, §4

[6] = GAGs from Fig. 2, read-out: Kd (±KD Confidence)

T1 sequence (Q8IWL2 21-248): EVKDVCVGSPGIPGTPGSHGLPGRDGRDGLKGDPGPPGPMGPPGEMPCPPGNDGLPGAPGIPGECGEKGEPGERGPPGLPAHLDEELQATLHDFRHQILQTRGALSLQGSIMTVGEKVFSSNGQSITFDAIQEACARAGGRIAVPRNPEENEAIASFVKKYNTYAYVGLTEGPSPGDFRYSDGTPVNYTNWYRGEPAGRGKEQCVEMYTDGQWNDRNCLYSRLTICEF
T1 sequence (Q8IWL1 21-248): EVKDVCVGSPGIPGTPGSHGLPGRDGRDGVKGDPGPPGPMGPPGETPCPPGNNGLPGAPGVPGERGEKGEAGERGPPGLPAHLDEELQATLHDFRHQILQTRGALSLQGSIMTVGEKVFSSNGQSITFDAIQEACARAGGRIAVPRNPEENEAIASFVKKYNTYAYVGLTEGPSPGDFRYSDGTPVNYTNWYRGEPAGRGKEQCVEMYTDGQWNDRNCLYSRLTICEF
T3 sequence (Q8IWL2 21-248): as the sequence (Q8IWL2 21-248) above
T4 sequence (Q8IWL1 21-248): as the sequence (Q8IWL1 21-248) above

Substance | binding of hSP-A in the absence or presence of low calcium concentrations ([1]; MST) | Response Amplitude ([1]; 5 mM Ca^2+) | Kd ([1]; 5 mM Ca^2+, read-out: KD) [µM] | Response Amplitude ([1]; 10 mM Ca^2+) | Kd ([1]; 10 mM Ca^2+, read-out: KD) [µM] | Kd [1, 6] [µM] | Response Amplitude ([1]; MST, GAGs from Fig. 2) | Response Amplitude ([2]; 5 mM Ca^2+) | Kd ([2]; 5 mM Ca^2+, read-out: KD) [µM] | Response Amplitude ([2]; 10 mM Ca^2+) | Kd ([2]; 10 mM Ca^2+, read-out: KD) [µM] | Kd [2, 6] [µM] | Response Amplitude ([2]; MST, GAGs from Fig. 2) | Kd [3] [µM] | Response Amplitude [3] | Kd [4] [µM] | Response Amplitude [4] | Kd [5] [µM] | Response Amplitude [5] | Response Amplitude ([1]; 0 mM Ca^2+) | other results
hyaluronic acid sodium salt [HA] | not able to bind | 7.31 | 0.00291 | 3.65 | 0.0546 | 0.0122 | 12.93 | 5.33 | 0.0419 | 3.25 | 0.0311 | 0.0221 | 9.67 | 1.01 | 17.13 | 1.87 | 19.28 | 2.19 | 3.45 |  | 
chondroitin sulfate sodium salt [CS] | binds | 8.07 | 0.00738 | 6.89 | 0.00591 | 0.225 | 8.37 | 10.83 | 0.0971 | 21.36 | 0.131 | 0.000808 | 23.54 | 0.0801 | 17.02 | 0.0552 | 31.90 | 5.82 | 3.74 | 7.16 | Kd ([1]; 0 mM Ca^2+, read-out: KD): 0.000999 µM; Response Amplitude ([1]; 2.5 mM Ca^2+): 13.45; Response Amplitude ([2]; 0 mM Ca^2+): 16.10; Kd ([2]; 0 mM Ca^2+, read-out: KD): 17.6 µM; Response Amplitude ([2]; 2.5 mM Ca^2+): 10.05; Kd ([2]; 2.5 mM Ca^2+, read-out: KD): 0.152 µM
heparan sulfate sodium [HS] | binds | 7.51 | 0.00374 | 2.79 | 0.375 | 0.0233 | 11.92 | 6.29 | 0.431 | 15.22 | 0.000688 | 0.287 | 3.55 | 0.269 | 15.51 | 0.143 | 15.59 | 5.64 | 3.03 | 3.61 | Kd ([1]; 0 mM Ca^2+, read-out: KD): 0.00322 µM; Response Amplitude ([1]; 2.5 mM Ca^2+): 9.27; Kd ([1]; 2.5 mM Ca^2+, read-out: KD): 0.000188 µM; Response Amplitude ([2]; 0 mM Ca^2+): 12.04; Kd ([2]; 0 mM Ca^2+, read-out: KD): 0.735 µM; Response Amplitude ([2]; 2.5 mM Ca^2+): 33.47; Kd ([2]; 2.5 mM Ca^2+, read-out: KD): 0.00744 µM
